The source of these data is ChEMBL document CHEMBL1126059 (J Med Chem, 1992).

Where a SMILES comes first, the peptide text is derived from it. [ ]: non-standard residue; d: D form. The star is where a group is joined. Boc = CC(C)(C)OC(=O)*; OBn = c1ccc(CO*)cc1; For = O=C* Some results are limits rather than exact numbers.

T1 sequence (P30547 whole entry): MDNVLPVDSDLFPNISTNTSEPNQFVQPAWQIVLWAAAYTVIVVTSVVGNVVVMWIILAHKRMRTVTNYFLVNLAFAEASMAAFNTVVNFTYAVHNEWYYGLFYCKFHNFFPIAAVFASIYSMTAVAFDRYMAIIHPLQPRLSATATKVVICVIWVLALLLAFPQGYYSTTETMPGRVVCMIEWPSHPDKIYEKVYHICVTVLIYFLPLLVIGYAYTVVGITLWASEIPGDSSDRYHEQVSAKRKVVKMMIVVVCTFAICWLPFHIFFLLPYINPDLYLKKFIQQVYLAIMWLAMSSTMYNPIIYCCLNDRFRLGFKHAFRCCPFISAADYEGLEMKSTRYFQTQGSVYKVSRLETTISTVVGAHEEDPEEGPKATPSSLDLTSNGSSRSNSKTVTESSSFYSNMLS

The first assay addresses T1, Substance-P receptor (Cavia porcellus, UniProt P30547). The experiment in a line: Displacement of specific binding of [3H]SP to tachykinin receptor 1 from the isolated guinea pig tracheal strips.
By IC50 is commonly meant the concentration at which inhibition is half-maximal. The low end stands for greater potency in that assay, the high end for weaker potency in that assay. As to `CC(C)(C)OC(=O)N[C@@H](CCC(N)=O)C(=O)N[C@H](Cc1cn(C=O)c2ccccc12)C(=O)N[C@@H](Cc1ccccc1)C(=O)OCc1ccc(Cl)cc1`, the IC50 turned out to be 1000 nM. Compound `CC(C)(C)OC(=O)N[C@@H](CCC(N)=O)C(=O)N[C@H](Cc1c[nH]c2ccccc12)C(=O)N[C@@H](Cc1ccccc1)C(N)=O` came in with an IC50 of 38700 nM. Take `NC(=O)CC[C@H](NC(=O)OCc1ccccc1)C(=O)N[C@@H](CCC(N)=O)C(=O)N[C@H](Cc1c[nH]c2ccccc12)C(=O)O`: the IC50 was above 100000 nM. Same read-out and setting: as for `O=C(N[C@@H](Cc1ccccc1)C(=O)N[C@H](Cc1c[nH]c2ccccc12)C(=O)N[C@H](Cc1c[nH]c2ccccc12)C(=O)O)OCc1ccccc1`, the figure is above 100000 nM. The same measure, in the same setting: the value for `CC(C)(C)OC(=O)N1CCC[C@@H]1C(=O)N[C@@H](CCC(N)=O)C(=O)N[C@@H](CCC(N)=O)C(N)=O` was above 100000 nM; that for `CC(C)(C)OC(=O)N[C@@H](CCC(N)=O)C(=O)N[C@@H](Cc1cn(C=O)c2ccccc12)C(=O)N[C@@H](Cc1ccccc1)C(=O)OCc1ccccc1` was 360 nM; that for `C[C@@H](O)[C@H](NC(=O)OC(C)(C)C)C(=O)N[C@H](Cc1cn(C=O)c2ccccc12)C(=O)N[C@@H](Cc1ccccc1)C(=O)OCc1ccccc1` (Boc-Thr-[dW](For)-Phe-OBn) was 110 nM.

With `CC(C)(C)OC(=O)N[C@@H](CCC(N)=O)C(=O)N[C@H](Cc1cn(C=O)c2ccccc12)C(=O)N[C@@H](Cc1ccccc1)C(=O)OCC1CCCCC1`, the IC50 is 400 nM. On the same count and under the same terms, the value for `CC(C)(C)OC(=O)N[C@@H](Cc1ccc(O)cc1)C(=O)N[C@H](Cc1cn(C=O)c2ccccc12)C(=O)N[C@@H](Cc1ccccc1)C(=O)OCc1ccccc1` was 260 nM.

`NC(=O)[C@@H](Cc1c[nH]c2ccccc12)NC(=O)[C@H](Cc1ccccc1)NC(=O)[C@@H](Cc1c[nH]c2ccccc12)NC(=O)OCc1ccccc1`: the IC50 is above 100000 nM. Same read-out and setting: the value for `NC(=O)CC[C@H](NC(=O)[C@H]1CCCN1C(=O)OCc1ccccc1)C(=O)N[C@@H](CCC(N)=O)C(=O)OCc1ccccc1` was 10000 nM; that for `CC(C)(C)OC(=O)N[C@@H](CCC(N)=O)C(=O)N[C@H](Cc1cn(C=O)c2ccccc12)C(=O)N[C@@H](Cc1ccccc1)C(=O)OCCc1ccccc1` was 500 nM. In turn, `NC(=O)CC[C@H](N)C(=O)N[C@H](Cc1cn(C=O)c2ccccc12)C(=O)N[C@@H](Cc1ccccc1)C(=O)OCc1ccccc1` returned a half-inhibitory concentration (IC50) of 210 nM.

Consider `CC(C)(C)OC(=O)N[C@@H](CCC(N)=O)C(=O)N[C@H](Cc1cn(C=O)c2ccccc12)C(=O)N[C@H](Cc1ccccc1)C(=O)OCc1ccccc1`, for which the IC50 came out at 770 nM. Compound `NC(=O)CC[C@H](NC(=O)[C@H](CCC(N)=O)NC(=O)[C@H]1CCCN1)C(=O)N[C@H](Cc1c[nH]c2ccccc12)C(=O)N[C@@H](Cc1ccccc1)C(=O)N[C@H](Cc1c[nH]c2ccccc12)C(=O)N[C@H](Cc1c[nH]c2ccccc12)C(=O)N[C@@H](Cc1ccccc1)C(N)=O` yielded an IC50 of 600 nM. This IC50 and that of the compound before are within 1.5-fold of each other. Still for that read-out and setting: as for `CSCC[C@@H](NC(=O)[C@H](CCC(N)=O)NC(=O)OC(C)(C)C)C(=O)N[C@@H](Cc1ccccc1)C(=O)OCc1ccccc1`, the figure is 790 nM; as for `CC(C)(C)OC(=O)N[C@@H](CCC(N)=O)C(=O)N[C@H](Cc1cn(C=O)c2ccccc12)C(=O)N[C@@H](Cc1ccccc1)C(=O)OCc1ccccc1`, 90 nM.

`CC(C)(C)OC(=O)N[C@@H](CCC(N)=O)C(=O)N[C@H](Cc1ccccc1)C(=O)N[C@@H](Cc1ccccc1)C(=O)OCc1ccccc1` came in with a half-inhibitory concentration (IC50) of 380 nM.

The compound `CC(C)C[C@@H](NC(=O)[C@H](CCC(N)=O)NC(=O)OC(C)(C)C)C(=O)N[C@@H](Cc1ccccc1)C(=O)OCc1ccccc1` came in with an IC50 of 1000 nM. Compared with the last compound, the IC50 is about 2.6-fold higher. On the same count and under the same terms, as for `CC(C)(C)OC(=O)N1CCC[C@@H]1C(=O)N[C@@H](CCC(N)=O)C(=O)N[C@@H](CCC(N)=O)C(=O)OCc1ccccc1`, the figure is 100000 nM; as for `O=C1CC[C@@H](C(=O)N[C@H](Cc2c[nH]c3ccccc23)C(=O)N[C@@H](Cc2ccccc2)C(=O)O)N1`, above 100000 nM. The same measure, in the same setting: the value for `CC(C)(C)OC(=O)N[C@@H](CCC(N)=O)C(=O)N[C@H](Cc1cn(C=O)c2ccccc12)C(=O)N[C@@H](Cc1ccc(O)cc1)C(=O)OCc1ccccc1` was 390 nM; that for `CC(C)(C)OC(=O)N[C@@H](CCC(N)=O)C(=O)N[C@H](Cc1cn(C=O)c2ccccc12)C(=O)N1C(C(=O)c2ccccc2)CC[C@H]1C(=O)OCc1ccccc1` (stereo not given in full) was 450 nM.

`CC(C)(C)OC(=O)N[C@@H](CCC(N)=O)C(=O)N[C@H](Cc1c[nH]c2ccccc12)C(=O)N[C@@H](Cc1ccccc1)C(=O)O` displayed an IC50 above 100000 nM. `CC(C)(C)OC(=O)NCC(=O)N[C@H](Cc1cn(C=O)c2ccccc12)C(=O)N[C@@H](Cc1ccccc1)C(=O)OCc1ccccc1` displayed an IC50 of 420 nM. Same read-out and setting: as for `O=C(N[C@H](Cc1c[nH]c2ccccc12)C(=O)N[C@@H](Cc1ccccc1)C(=O)N[C@H](Cc1c[nH]c2ccccc12)C(=O)O)OCc1ccccc1`, the figure is 23800 nM; as for `CC(C)(C)OC(=O)N[C@@H](CCC(N)=O)C(=O)N[C@@H](Cc1ccccc1)C(=O)N[C@@H](Cc1ccccc1)C(=O)OCc1ccccc1`, 1000 nM. On the same count and under the same terms, as for `CC(C)(C)OC(=O)N[C@@H](CCC(N)=O)C(=O)N[C@H](Cc1cn(C=O)c2ccccc12)C(=O)N1Cc2ccccc2CC1C(=O)OCc1ccccc1` (stereo not given in full), the figure is 140 nM; as for `CC(C)(C)OC(=O)N[C@H](Cc1c[nH]c2ccccc12)C(=O)N[C@H](Cc1c[nH]c2ccccc12)C(=O)N[C@@H](Cc1ccccc1)C(=O)OCc1ccccc1`, above 100000 nM. Still for that read-out and setting: the value for `O=C(N[C@@H](Cc1ccccc1)C(=O)N[C@H](Cc1c[nH]c2ccccc12)C(=O)N[C@H](Cc1c[nH]c2ccccc12)C(=O)OCc1ccccc1)OCc1ccccc1` was 100000 nM. Regarding `CN(C(=O)[C@@H](Cc1cn(C=O)c2ccccc12)NC(=O)[C@H](CCC(N)=O)NC(=O)OC(C)(C)C)[C@@H](Cc1ccccc1)C(=O)OCc1ccccc1`, the IC50 amounted to 240 nM. Same read-out and setting: as for `CC(C)(C)OC(=O)N[C@@H](CCC(N)=O)C(=O)N[C@H](Cc1cn(C=O)c2ccccc12)C(=O)N[C@@H](Cc1ccccc1)C(=O)O`, the figure is above 100000 nM. On the same count and under the same terms, the value for `CC(C)(C)OC(=O)N[C@@H](CCC(N)=O)C(=O)N[C@H](Cc1c[nH]c2ccccc12)C(=O)N[C@@H](Cc1ccccc1)C(=O)OCc1ccccc1` was 550 nM.

Turning to `O=C(N[C@H](Cc1c[nH]c2ccccc12)C(=O)N[C@@H](Cc1ccccc1)C(=O)N[C@H](Cc1c[nH]c2ccccc12)C(=O)OCc1ccccc1)OCc1ccccc1`, the IC50 worked out at 10000 nM. Same read-out and setting: the value for `NC(=O)CC[C@H](NC(=O)[C@@H]1CCC(=O)N1)C(=O)N[C@H](Cc1c[nH]c2ccccc12)C(=O)O` was above 100000 nM; that for `NC(=O)CC[C@H](NC(=O)[C@H](CCC(N)=O)NC(=O)[C@H]1CCCN1)C(=O)O` was above 100000 nM; that for `CC(C)(C)OC(=O)N[C@@H](CO)C(=O)N[C@H](Cc1cn(C=O)c2ccccc12)C(=O)N[C@@H](Cc1ccccc1)C(=O)OCc1ccccc1` (Boc-Ser-[dW](For)-Phe-OBn) was 110 nM.

The target of the next assay is T1, Substance-P receptor. In words: In vitro inhibitory concentration that gave 50% displacement of specific binding of [3H]SP to Tachykinin receptor 1 from the isolated guinea pig tracheal strips; No inhibition at 10E-4 M.
`CC(C)(C)OC(=O)N[C@@H](CCC(N)=O)C(=O)N[C@H](Cc1cn(C=O)c2ccccc12)C(=O)N1CCC[C@H]1C(=O)OCc1ccccc1`: the IC50 entry is recorded as “Not Active”.

As to `CC(C)(C)OC(=O)N[C@@H](CCC(N)=O)C(=O)N[C@H](Cc1cn(C=O)c2ccccc12)C(=O)NCC(=O)OCc1ccccc1`, the IC50 result is “Not Active”. Same read-out and setting: as for `CC(C)[C@H](NC(=O)[C@@H](Cc1cn(C=O)c2ccccc12)NC(=O)[C@H](CCC(N)=O)NC(=O)OC(C)(C)C)C(=O)OCc1ccccc1`, the entry is “Not Active”.
